Results as given in PubChem BioAssay (NCI).
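Values below derive from 48-hour exposures of cells grown in 96-well plates, with endpoints linearly interpolated between the two concentrations bracketing the appropriate inhibition level. TGI: total growth inhibition.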 Where a SMILES comes first, the peptide text is derived from it. The star is where a group is joined. Boc = CC(C)(C)OC(=O)*; OtBu = CC(C)(C)O*

Tests used:
Assay in all cases: NCI anticancer screen, dose series, 48 h
NCI-H522 lung = tested on: NCI-H522 lung
SNB-78 CNS = tested on: SNB-78 CNS
OVCAR-4 ovarian = tested on: OVCAR-4 ovarian
LXFL 529 NSCLC = tested on: LXFL 529 NSCLC
HOP-62 NSCLC = tested on: HOP-62 NSCLC
DMS 273 small cell lung = tested on: DMS 273 small cell lung
KM20L2 colon = tested on: KM20L2 colon
HOP-18 NSCLC = tested on: HOP-18 NSCLC
K-562 leukemia = tested on: K-562 leukemia
SNB-75 CNS = tested on: SNB-75 CNS
DMS 114 small cell lung = tested on: DMS 114 small cell lung
XF 498 CNS = tested on: XF 498 CNS
M19-MEL melanoma = tested on: M19-MEL melanoma
DLD-1 colon = tested on: DLD-1 colon
RXF-631 renal = tested on: RXF-631 renal

| Structure (SMILES) | TGI (NCI-H522 lung) [µM] | TGI (SNB-78 CNS) [µM] | TGI (OVCAR-4 ovarian) [µM] | TGI (LXFL 529 NSCLC) [µM] | TGI (HOP-62 NSCLC) [µM] | TGI (DMS 273 small cell lung) [µM] | TGI (KM20L2 colon) [µM] | TGI (HOP-18 NSCLC) [µM] | TGI (K-562 leukemia) [µM] | TGI (SNB-75 CNS) [µM] | TGI (DMS 114 small cell lung) [µM] | TGI (XF 498 CNS) [µM] | TGI (M19-MEL melanoma) [µM] | TGI (DLD-1 colon) [µM] | TGI (RXF-631 renal) [µM] |
| --- | --- | --- | --- | --- | --- | --- | --- | --- | --- | --- | --- | --- | --- | --- | --- |
| O=C(O)OC12CCCCCC1C(=O)C1CCCCC12 (configuration not stated) | > 100 | > 100 | > 100 | > 100 | > 100 | > 100 | > 100 | > 100 | > 100 | > 100 | > 100 | > 100 | > 100 | – | – |
| FC(F)(F)c1ccc2c(c1)nc(Cc1ccc(Cl)cc1)n2CC1CCCN2CCCCC12 (configuration not stated) | 16.9 | – | 36.1 | – | 27.7 | – | – | – | 19.4 | 14 | – | – | – | – | – |
| COc1cc(OC)cc(Oc2nc3ccc(C(F)(F)F)cc3nc2-c2ccccc2)c1 | > 100 | – | > 100 | – | > 100 | – | – | – | > 100 | > 100 | – | – | – | – | – |
| O=c1[nH]c2ccccc2c(=O)c2cc3ccccc3cc12 | 25.8 | – | > 100 | – | 25.9 | – | – | – | > 100 | 19.4 | – | – | – | – | – |
| Cc1c(CNc2ccc(Cl)c(Cl)c2Cl)cnc2nc(N)nc(N)c12 | > 45.2 | – | 31.1 | – | > 43.5 | – | – | – | 5.14 | 24.3 | – | – | – | – | – |
| CC(C)OP(=O)(OC(C)C)C(=Nc1ccc(N=C(NNc2ccc([N+](=O)[O-])cc2)P(=O)(OC(C)C)OC(C)C)cc1)NNc1ccc([N+](=O)[O-])cc1 | > 100 | – | > 100 | > 100 | > 100 | > 100 | > 100 | – | > 100 | > 100 | > 100 | > 100 | > 100 | > 100 | – |
| NC(C(=O)O)C(O)c1cnc[nH]1 (configuration not stated) | > 100 | – | > 100 | – | > 100 | – | – | – | > 100 | > 100 | – | – | – | – | – |
| CC(C)=CCN1c2ccccc2[C@@]2(CC=C(C)C)CCN(C)[C@@H]12 | 39.9 | – | > 100 | – | 55 | – | – | – | 48.2 | > 100 | – | – | – | – | – |
| CCOC(=O)/C(C#N)=c1/s/c(=C(\O)N/N=C/c2ccc(OC)cc2)c(=N)n1-c1ccccc1 | > 100 | – | – | > 100 | > 100 | – | – | > 100 | > 100 | 27.2 | – | – | > 100 | > 100 | – |
| O=[N+]([O-])C1=Cc2c(O)ccc(O)c2C2c3ccccc3NC12 (configuration not stated) | 5.48 | – | 30.1 | – | 25 | – | – | – | > 100 | > 61.3 | – | – | – | – | – |
| CN(C)CCCCN1c2ccccc2Sc2ccc(N=[N+]=[N-])cc21 | 14.1 | – | 19.3 | – | 25.1 | – | – | – | 4.56 | 10 | – | – | – | – | – |
| CCO/C=N\C1=C(C#N)SC2=N/C(=C\c3ccco3)C(=O)N21 | > 100 | – | > 100 | – | > 100 | – | – | – | > 100 | > 100 | – | – | – | – | – |
| NC(Cc1c2ccccc2cc2ccccc12)C(=O)O (configuration not stated) | > 100 | – | > 100 | – | > 100 | – | – | – | > 100 | 94.9 | – | – | – | – | – |
| COc1cc(CCNC2=CC(=O)c3ncccc3C2=O)ccc1O | 10.3 | – | 12.1 | – | 9.5 | – | – | – | 17.7 | 4.73 | – | – | – | – | – |
| CC(=O)Nc1ccc2c3c(cc(O)c2c1)N(C(=O)CCCCCCC(=O)Nc1ccc2c4c(cc(O)c2c1)N(C(=O)OC(C)(C)C)CC4CCl)CC3CCl (configuration not stated) | 0.405 | – | 3.98 | – | 3.45 | – | – | – | > 100 | 0.284 | – | – | – | – | – |
| Nc1cc2c(C3OC(CO)C(O)C3O)[nH]nc2c(=S)[nH]1 (configuration not stated) | > 100 | > 100 | > 100 | > 100 | > 100 | > 100 | > 100 | – | > 100 | > 100 | > 100 | > 100 | > 100 | > 100 | > 100 |
| CC(C)(C)OC(=O)CC(NC(=O)OC(C)(C)C)C(=O)NC(Cc1ccccc1)C(N)=O (configuration not stated) (Boc-Asp(OtBu)-Phe-NH2; configuration not given here) | > 100 | – | > 100 | – | > 100 | – | – | – | > 100 | > 100 | – | – | – | – | – |
